Test results taken from patent publication US20170313674A1, “BENZYLHYDROXIDE DERIVATIVES, PREPARATION THEREOF AND THERAPEUTIC USE THEREOF” (SANOFI, priority 2014, published 2017).
Like-named read-outs stand apart in the source and are kept apart here.

Key:
HIF-1a = assay: Western blot model: HIF1-a stabilization in Hep3b cells under hypoxia; assay type: cell-based; conditions: hypoxia 1% O2, 6 hours; for Western Blot (range of decrease of HIF1-a stabilization): class symbol
Procedure: Since it was sought to determine the efficacy of the compounds to inhibit HIF1a stabilization under hypoxia, the compounds according to the invention underwent biochemical studies in order to determine their capacity to decrease HIF stabilization in Hep3b cells under hypoxia (western blot model).
Hep3B cells are seeded at a rate of 300000 cells per well in 6-wells culture plate in 2 ml of MEM supplemented with glutamin (2 mM) and 10% FCS (foetal calf serum) and incubated at 37° C. in the presence of 5% CO2. The next day, the cells are placed in contact with the compound and an incubation under hypoxia at 1% O2 is carried out at 37° C. in 95% humidity and 5% CO2 in a sealed anaerobic workstation (Hypoxystation H35-Don Whitley—AES Chemunex) during 6 hours.
Cells were washed (PBS) and lysed in SDS sample buffer. Proteins (25 μg) were separated on 4-12% Bis-Tris gels and transferred onto polyvinylidene difluoride membranes (Millipore). Membranes were blotted with a mouse monoclonal antibody to HIF-1a (BD transduction) and a mouse monoclonal anti-βactin (Sigma). Immunoreactive bands were detected with a horse radish peroxydase (HRP) anti-mouse antibody (Sigma) by enhanced chemiluminescence (Promega).
The inhibitory activity of the compounds for their capacity to decrease HIF1-a stabilization in Hep3b under hypoxia is expressed as range of percentage relative to control with: […]

[1] = system: mitochondrial ATP production on non-small cell lung carcinoma cell lines NCI-H460; assay: Mitochondrial ATP analysis (Cell Titer Glo) in NCI-H460 cells; assay type: cell-based; conditions: 1-hour incubation, with sodium iodoacetate (100 μM), concentration inhibiting 50% of mitochondrial ATP production, read-out: IC50 (mito ATP)
Procedure: In order to evaluate the inhibitory activity of the all compounds, an in vitro assay was developed which read out is directly linked to mitochondrial complex 1 inhibition. Since mitochondrial complex 1 contributes to the formation of membrane potential coupled to the mitochondrial ATP synthesis, complex 1 inhibition directly leads in cells to the inhibition of mitochondrial ATP production. Cellular ATP contents were measured in presence of either glycolysis inhibitor (sodium iodocetate) and/or mitochondrial inhibitors (F0F1-ATPase inhibitor: oligomycin or mitochondrial uncoupler: FCCP) to determine the ATP production part relying either on glycolytic or on mitochondrial metabolism.
Mitochondrial ATP Analysis
The compounds of the invention were evaluated for their ability to inhibit mitochondrial
ATP was measured using the Promega Cell Titer Glo kit and protocol. In summary, 1,000 cells were plated in 40 μL in a 384 well plate. 24 hours later, medium was replaced by 20 μl culture medium in presence of compounds: cells were treated in replicates of five with control (PBS), oligomycin A (10 μg/ml), FCCP (30 μM), or the compounds of the invention in dose effect both alone or in combination with sodium iodoacetate (100 μM). Following a 1-hour incubation, 20 μL of CellTtiter-glo™ reaction mix were added to each well for a final volume of 40 μL. Plates were then analyzed for luminescence with a Perkin Elmer EnVision. By comparing the different conditions, global ATP and percentages of both glycolytic and mitochondrial ATP were determined.
The mitochondrial ATP production was calculated as the remaining ATP under iodoacetate treatment minus basal ATP (ATP content under iodoacetate and oligomycin treatment). Inhibitory activity of the compounds on mitochondrial ATP in NCI-H460 cells is expressed as the concentration needed to inhibit 50% of mitochondrial ATP production (IC50, M).

Structure (SMILES) | Western Blot (decrease of HIF1-a stabilization, percentage relative to control) (HIF-1a) [%] | Western Blot (range of decrease of HIF1-a stabilization) (HIF-1a) | IC50 [1] [nM] | IC50 ([1]; Homo sapiens, NCI-H460, 1 h) [nM]
COc1ccc(C(O)COc2ccc(-c3csc(-c4ccc(OCC(O)c5ccc(OC)c(OC)c5)cc4)n3)cc2)cc1OC (single isomer, unassigned) [Compound I-24, 1-(3,4-dimethoxyphenyl)-2-[4-[2-[4-[2-(3,4-dimethoxyphenyl)-2-hydroxy-ethoxy]phenyl]thiazol-4-yl]phenoxy]ethanol] | 49 | * (* represents a decrease of HIF-a stabilization between 30 to 50%) | 254 | 
COc1ccc(C(O)COc2ccc(-c3csc(-c4ccc(OCC(O)c5ccc(OC)c(OC)c5)cc4)n3)cc2)cc1OC (single isomer, unassigned) [Compound I-25, 1-(3,4-dimethoxyphenyl)-2-[4-[2-[4-[2-(3,4-dimethoxyphenyl)-2-hydroxy-ethoxy]phenyl]thiazol-4-yl]phenoxy]ethanol] | 41 | * (* represents a decrease of HIF-a stabilization between 30 to 50%) | 195 | 
COc1ccc(C(O)C(C)Oc2ccc(-c3csc(-c4ccc(OC(C)C(O)c5ccc(OC)c(OC)c5)cc4)n3)cc2)cc1OC (single isomer, unassigned) [Compound I-29, 1-(3,4-dimethoxyphenyl)-2-[4-[2-[4-[2-(3,4-dimethoxyphenyl)-2-hydroxy-1-methyl-ethoxy]phenyl]thiazol-4-yl]phenoxy]propan-1-ol] | 67 | ** (** represents a decrease of HIF-a stabilization between 50 to 70%) | 159 | 
COc1ccc(C(O)C(C)Oc2ccc(-c3csc(-c4ccc(OC(C)C(O)c5ccc(OC)c(OC)c5)cc4)n3)cc2)cc1OC (single isomer, unassigned) [Compound I-30, 1-(3,4-dimethoxyphenyl)-2-[4-[2-[4-[2-(3,4-dimethoxyphenyl)-2-hydroxy-1-methyl-ethoxy]phenyl]thiazol-4-yl]phenoxy]propan-1-ol] | 56 | ** (** represents a decrease of HIF-a stabilization between 50 to 70%) | 167 | 
COc1ccc(C(O)C(C)Oc2ccc(-c3csc(-c4ccc(OC(C)C(O)c5ccc(OC)c(OC)c5)cc4)n3)cc2)cc1OC (single isomer, unassigned) [Compound I-31, 1-(3,4-dimethoxyphenyl)-2-[4-[2-[4-[2-(3,4-dimethoxyphenyl)-2-hydroxy-1-methyl-ethoxy]phenyl]thiazol-4-yl]phenoxy]propan-1-ol] | 64 | ** (** represents a decrease of HIF-a stabilization between 50 to 70%) | 300 | 
COc1ccc(C(O)C(C)Oc2ccc(-c3csc(-c4ccc(OC(C)C(O)c5ccc(OC)c(OC)c5)cc4)n3)cc2)cc1OC (single isomer, unassigned) [Compound I-32, 1-(3,4-dimethoxyphenyl)-2-[4-[2-[4-[2-(3,4-dimethoxyphenyl)-2-hydroxy-1-methyl-ethoxy]phenyl]thiazol-4-yl]phenoxy]propan-1-ol] | 45 | * (* represents a decrease of HIF-a stabilization between 30 to 50%) | 47.6 | 
COc1ccc(C(O)C(C)Oc2ccc(-c3csc(-c4ccc(OC(C)C(O)c5ccc(OC)c(OC)c5)cc4)n3)cc2)cc1OC (single isomer, unassigned) [Compound I-33, 1-(3,4-dimethoxyphenyl)-2-[4-[2-[4-[2-(3,4-dimethoxyphenyl)-2-hydroxy-1-methyl-ethoxy]phenyl]thiazol-4-yl]phenoxy]propan-1-ol] | 52 | * (* represents a decrease of HIF-a stabilization between 30 to 50%) | 30.1 | 
COc1ccc(C(O)C(C)(C)Oc2ccc(-c3noc(-c4ccc(OC(C)(C)C(O)c5ccc(OC)c(OC)c5)cc4)n3)cc2)cc1OC (single isomer, unassigned) [Compound I-37, 1-(3,4-dimethoxyphenyl)-2-[4-[5-[4-[2-(3,4-dimethoxyphenyl)-2-hydroxy-1,1-dimethyl-ethoxy]phenyl]-1,2,4-oxadiazol-3-yl]phenoxy]-2-methyl-propan-1-ol] | 74 | *** (*** represents a decrease of HIF-a stabilization higher than 70%) |  | 94.3
COc1ccc(C(O)C(C)(C)Oc2ccc(-c3nsc(-c4ccc(OC(C)(C)C(O)c5ccc(OC)c(OC)c5)cc4)n3)cc2)cc1OC (single isomer, unassigned) [Compound I-43, 1-(3,4-dimethoxyphenyl)-2-[4-[5-[4-[2-(3,4-dimethoxyphenyl)-2-hydroxy-1,1-dimethyl-ethoxy]phenyl]-1,2,4-thiadiazol-3-yl]phenoxy]-2-methyl-propan-1-ol] | 32 | * (* represents a decrease of HIF-a stabilization between 30 to 50%) |  | 37
COc1ccc(C(O)C(C)(C)Oc2ccc(-c3nsc(-c4ccc(OC(C)(C)C(O)c5ccc(OC)c(OC)c5)cc4)n3)cc2)cc1OC (single isomer, unassigned) [Compound I-44, 1-(3,4-dimethoxyphenyl)-2-[4-[5-[4-[2-(3,4-dimethoxyphenyl)-2-hydroxy-1,1-dimethyl-ethoxy]phenyl]-1,2,4-thiadiazol-3-yl]phenoxy]-2-methyl-propan-1-ol] | 45 | * (* represents a decrease of HIF-a stabilization between 30 to 50%) | 54.4 | 
COc1ccc(C(O)COc2ccc(-c3noc(-c4ccc(OCC(O)c5ccc(OC)c(OC)c5)cc4)n3)cc2)cc1OC (single isomer, unassigned) [Compound I-47, 1-(3,4-dimethoxyphenyl)-2-[4-[5-[4-[2-(3,4-dimethoxyphenyl)-2-hydroxy-ethoxy]phenyl]-1,2,4-oxadiazol-3-yl]phenoxy]ethanol] | 51 | ** (** represents a decrease of HIF-a stabilization between 50 to 70%) |  | > 10000
COc1ccc(C(O)COc2ccc(-c3noc(-c4ccc(OCC(O)c5ccc(OC)c(OC)c5)cc4)n3)cc2)cc1OC (single isomer, unassigned) [Compound I-48, 1-(3,4-dimethoxyphenyl)-2-[4-[5-[4-[2-(3,4-dimethoxyphenyl)-2-hydroxy-ethoxy]phenyl]-1,2,4-oxadiazol-3-yl]phenoxy]ethanol] | 87 | *** (*** represents a decrease of HIF-a stabilization higher than 70%) | > 10000 | 
COc1ccc(C(O)C(C)(C)Oc2ccc(-c3c[nH]c(-c4ccc(OC(C)(C)C(O)c5ccc(OC)c(OC)c5)cc4)n3)cc2)cc1OC (single isomer, unassigned) [Compound I-55, 1-(3,4-dimethoxyphenyl)-2-[4-[2-[4-[2-(3,4-dimethoxyphenyl)-2-hydroxy-1,1-dimethyl-ethoxy]phenyl]-1H-imidazol-4-yl]phenoxy]-2-methyl-propan-1-ol] | 62 | ** (** represents a decrease of HIF-a stabilization between 50 to 70%) |  | 435
